From PubChem BioAssay (NCI)
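Dose response: 5 concentrations. Exposure: 48 h. Format: 96-well plates. Endpoint: linear interpolation; highest concentration if not reached. GI50 = concentration required for 50% inhibition of growth. TGI: total growth inhibition.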

Columns and labels:
Assay in all cases: NCI-60 cell line screen, 48 h
[1] = system: SK-MEL-2 melanoma
[2] = system: SK-MEL-5 melanoma
[3] = system: HCT-116 colon
[4] = system: 786-0 renal
[5] = system: NCI-H226 lung
[6] = system: MDA-MB-231 breast
[7] = system: SF-268 CNS
[8] = system: HS 578T breast
[9] = system: A549 NSCLC
[10] = system: UACC-257 melanoma
[11] = system: BT-549 breast
[12] = system: K-562 leukemia
[13] = system: UO-31 renal
[14] = system: EKVX NSCLC
[15] = system: DU-145 prostate
[16] = system: IGROV1 ovarian
[17] = system: TK-10 renal
[18] = system: KM12 colon
[19] = system: MOLT-4 leukemia
[20] = system: UACC-62 melanoma
[21] = system: OVCAR-5 ovarian
[22] = system: COLO 205 colon
[23] = system: HCT-15 colon
[24] = system: CAKI-1 renal
[25] = system: SN12C renal
[26] = system: RPMI-8226 leukemia
[27] = system: M14 melanoma
[28] = system: SK-MEL-28 melanoma
[29] = system: NCI-H522 lung
[30] = system: OVCAR-8 ovarian
[31] = system: ACHN renal
[32] = system: U251 CNS
[33] = system: SNB-19 CNS
[34] = system: MCF7 breast
[35] = system: A498 renal
[36] = system: SNB-75 CNS
[37] = system: SF-539 CNS
[38] = system: NCI-H460 lung
[39] = system: OVCAR-3 ovarian
[40] = system: PC-3 prostate
[41] = system: OVCAR-4 ovarian
[42] = system: MDA-MB-435
[43] = system: SW-620 colon
[44] = system: HL-60(TB) leukemia
[45] = system: LOX IMVI melanoma
[46] = system: SR leukemia
[47] = system: SF-295 CNS
[48] = system: HT29 colon
[49] = system: RXF 393 renal
[50] = system: SK-OV-3 ovarian
[51] = system: NCI/ADR-RES ovarian
[52] = system: HCC-2998 colon
[53] = system: MALME-3M melanoma
[54] = system: CCRF-CEM leukemia
[55] = system: NCI-H23 lung
[56] = system: HOP-92 NSCLC
[57] = system: HOP-62 NSCLC

SMILES: CCCN1C(=O)/C(=C/c2cccc(O)c2)SC1=Nc1ccc(OC)cc1
- GI50 [1]: 31.9 µM
- TGI [1]: > 50 µM
- GI50 [2]: 7.28 µM
- TGI [2]: 15.1 µM
- GI50 [3]: 7.35 µM
- TGI [3]: 13.9 µM
- GI50 [4]: 8.63 µM
- TGI [4]: 16.4 µM
- GI50 [5]: 13.3 µM
- TGI [5]: 27.6 µM
- GI50 [6]: 7.86 µM
- TGI [6]: 16 µM
- GI50 [7]: 9.65 µM
- TGI [7]: 20.8 µM
- GI50 [8]: 16.5 µM
- TGI [8]: 34.1 µM
- GI50 [9]: 9.11 µM
- TGI [9]: 18.3 µM
- GI50 [10]: 9.48 µM
- TGI [10]: 17.1 µM
- GI50 [11]: 8.08 µM
- TGI [11]: 15.6 µM
- GI50 [12]: 2.8 µM
- TGI [12]: 22.3 µM
- GI50 [13]: 13.5 µM
- TGI [13]: > 50 µM
- GI50 [14]: 9.5 µM
- TGI [14]: 17.2 µM
- GI50 [15]: 7.93 µM
- TGI [15]: 15.3 µM
- GI50 [16]: 29.5 µM
- TGI [16]: > 50 µM
- GI50 [17]: 9.62 µM
- TGI [17]: 19.5 µM
- GI50 [18]: 6.77 µM
- TGI [18]: 16.5 µM
- GI50 [19]: 4.7 µM
- TGI [19]: > 50 µM
- GI50 [20]: 10.3 µM
- TGI [20]: 18.1 µM
- GI50 [21]: 7.94 µM
- TGI [21]: 14.8 µM
- GI50 [22]: 11.1 µM
- TGI [22]: 25.2 µM
- GI50 [23]: 7.76 µM
- TGI [23]: 16.2 µM
- GI50 [24]: 9.86 µM
- TGI [24]: 20.5 µM
- GI50 [25]: 9.17 µM
- TGI [25]: 17.5 µM
- GI50 [26]: 5.61 µM
- TGI [26]: 15.7 µM
- GI50 [27]: 12.9 µM
- TGI [27]: 21.3 µM
- GI50 [28]: 10.2 µM
- TGI [28]: 20.2 µM
- GI50 [29]: 23.4 µM
- TGI [29]: > 50 µM
- GI50 [30]: 10.7 µM
- TGI [30]: 22.2 µM
- GI50 [31]: 8.08 µM
- TGI [31]: 15.3 µM
- GI50 [32]: 7.87 µM
- TGI [32]: 14.6 µM
- GI50 [33]: 9.5 µM
- TGI [33]: 19.3 µM
- GI50 [34]: 10.9 µM
- TGI [34]: 29.2 µM
- GI50 [35]: 8.81 µM
- TGI [35]: 16.5 µM
- GI50 [36]: 11.7 µM
- TGI [36]: 22.8 µM
- GI50 [37]: 8.25 µM
- TGI [37]: 15.7 µM
- GI50 [38]: 13.5 µM
- TGI [38]: > 50 µM
- GI50 [39]: 10.2 µM
- TGI [39]: 21.1 µM
- GI50 [40]: 6.59 µM
- TGI [40]: 13.2 µM
- GI50 [41]: 8.18 µM
- TGI [41]: 18.8 µM
- GI50 [42]: 10.8 µM
- TGI [42]: 22 µM
- GI50 [43]: 9.78 µM
- TGI [43]: 17.3 µM
- GI50 [44]: 4.09 µM
- TGI [44]: > 50 µM
- GI50 [45]: 7.9 µM
- TGI [45]: 15.2 µM
- GI50 [46]: 6.04 µM
- TGI [46]: > 50 µM
- GI50 [47]: 11.5 µM
- TGI [47]: 23.3 µM
- GI50 [48]: 8.98 µM
- TGI [48]: 19.7 µM
- GI50 [49]: 9.3 µM
- TGI [49]: 19.3 µM

SMILES: O=S(=O)(O)c1ccc(N=Nc2ccc(N=Nc3c(O)ccc4ccccc34)c(S(=O)(=O)O)c2)cc1
- TGI [1]: > 100 µM
- TGI [2]: > 100 µM
- TGI [3]: > 100 µM
- TGI [4]: > 100 µM
- TGI [5]: > 100 µM
- TGI [6]: > 100 µM
- TGI [7]: > 100 µM
- TGI [50]: > 100 µM
- TGI [8]: > 100 µM
- TGI [9]: > 100 µM
- TGI [10]: > 100 µM
- TGI [11]: > 100 µM
- TGI [12]: > 100 µM
- TGI [13]: > 100 µM
- TGI [14]: > 100 µM
- TGI [16]: > 100 µM
- TGI [17]: > 100 µM
- TGI [18]: > 100 µM
- TGI [51]: > 100 µM
- TGI [19]: > 100 µM
- TGI [20]: > 100 µM
- TGI [21]: > 100 µM
- TGI [22]: > 100 µM
- TGI [23]: > 100 µM
- TGI [24]: > 100 µM
- TGI [26]: > 100 µM
- TGI [27]: > 100 µM
- TGI [52]: > 100 µM
- TGI [28]: > 100 µM
- TGI [29]: > 100 µM
- TGI [30]: > 100 µM
- TGI [31]: > 100 µM
- TGI [53]: > 100 µM
- TGI [32]: > 100 µM
- TGI [54]: > 100 µM
- TGI [33]: > 100 µM
- TGI [34]: > 100 µM
- TGI [36]: > 100 µM
- TGI [37]: > 100 µM
- TGI [38]: > 100 µM
- TGI [39]: > 100 µM
- TGI [55]: > 100 µM
- TGI [40]: > 100 µM
- TGI [42]: > 100 µM
- TGI [43]: > 100 µM
- TGI [44]: > 100 µM
- TGI [56]: > 100 µM
- TGI [46]: > 100 µM
- TGI [47]: > 100 µM
- TGI [48]: > 100 µM
- TGI [49]: > 100 µM
- TGI [57]: > 100 µM

SMILES: O=S(=O)(O)c1cc(N=Nc2c(O)ccc3ccccc23)c2c(S(=O)(=O)O)cccc2c1
- TGI [1]: > 100 µM
- TGI [2]: > 100 µM
- TGI [3]: > 100 µM
- TGI [4]: > 100 µM
- TGI [5]: > 100 µM
- TGI [6]: > 100 µM
- TGI [7]: > 100 µM
- TGI [50]: > 100 µM
- TGI [8]: > 100 µM
- TGI [9]: > 100 µM
- TGI [10]: > 100 µM
- TGI [11]: > 100 µM
- TGI [12]: > 100 µM
- TGI [13]: > 100 µM
- TGI [14]: > 100 µM
- TGI [16]: > 100 µM
- TGI [17]: > 100 µM
- TGI [18]: > 100 µM
- TGI [51]: > 100 µM
- TGI [19]: > 100 µM
- TGI [20]: > 100 µM
- TGI [21]: > 100 µM
- TGI [22]: > 100 µM
- TGI [23]: > 100 µM
- TGI [24]: > 100 µM
- TGI [26]: > 100 µM
- TGI [27]: > 100 µM
- TGI [52]: > 100 µM
- TGI [28]: > 100 µM
- TGI [29]: > 100 µM
- TGI [30]: > 100 µM
- TGI [31]: > 100 µM
- TGI [53]: > 100 µM
- TGI [32]: > 100 µM
- TGI [54]: > 100 µM
- TGI [33]: > 100 µM
- TGI [34]: > 100 µM
- TGI [36]: > 100 µM
- TGI [37]: > 100 µM
- TGI [38]: > 100 µM
- TGI [39]: > 100 µM
- TGI [55]: > 100 µM
- TGI [40]: > 100 µM
- TGI [41]: > 100 µM
- TGI [42]: > 100 µM
- TGI [43]: > 100 µM
- TGI [44]: > 100 µM
- TGI [56]: > 100 µM
- TGI [46]: > 100 µM
- TGI [47]: > 100 µM
- TGI [48]: > 100 µM
- TGI [49]: > 100 µM
- TGI [57]: > 100 µM
